Laboratory results taken from US20040110678A1, “Novel drug delivery system” (priority 2001, published 2004).
≈ marks a conversion by molar mass, not a printed value. Where two headings read alike, the source gives them in different places. Where a SMILES comes first, the peptide text is derived from it. The star is where a group is joined. Palmitoyl = CCCCCCCCCCCCCCCC(=O)*; Myristoyl = CCCCCCCCCCCCCC(=O)*

Legend:
[1] = test system: Escherichia coli 0111-NCTC 8007; type: cell-based; details: for Minimum Inhibitory Concentration E. coli: NCTC 8007
Procedure: (§1) Staphylococcus aureus NCTC Oxford and Escherichia coli 0111-NCTC 8007 strains were obtained from the National Collection of Type Cultures, Colindale, UK MIC for each sample was determined in 96 well plates. The above sample in PBS was serially diluted in microtitre wells with media, RPMI-1640 to give concentrations from 2 mg/ml to 0.00375 mg/ml or from 1 mg/ml to 0.00375 mg/ml or from 0.5 mg/ml to 0.00375 mg/ml of RH01 in a final volume of 100 μl. Bacteria were incubated at 37° C. overnight in standard media to give approximately 10^8 bacteria/ml and 10 μl of this was added to each well. The plates were incubated at 37° C. overnight, and bacterial growth determined by formation of a pellet.
(§2) Staphylococcus aureus NCTC Oxford and Escherichia coli 0111-NCTC 8007 strains were obtained from the National Collection of Type Cultures, Colindale, UK. The MIC for each sample was determined in 96 well plates. The RH01 in PBS (see above) was serially diluted in microtitre wells with media (RPMI-1640) to give final concentrations of 2 mg/ml to 0.00375 mg/ml of RH01 in a final volume of 100 μl. Bacteria were incubated at 37° C. overnight in standard media to give approximately 10^8 bacteria/ml and 10 μl of this was added to each well. The plates were incubated at 37° C. overnight, and bacterial growth determined by formation of a pellet.

[2] = test system: Staphylococcus aureus NCTC Oxford; assay: microbe, parasite or virus in culture; type: cell-based; details: for MIC: read-out: MIC S. aureus
Procedure: as §1, §2

BSAff = molecular target: T1, BSAff (Bos taurus, UniProt P02769); assay: Diazepam binding to fatty acid free bovine serum albumin by induced CD; details: fatty acid 0M/M
T1 construct: Bovine serum albumin essentially fatty acid free; purchased Sigma-Aldrich Company Ltd catalogue number not given; lot 100K7415
T1 sequence (P02769 25-607): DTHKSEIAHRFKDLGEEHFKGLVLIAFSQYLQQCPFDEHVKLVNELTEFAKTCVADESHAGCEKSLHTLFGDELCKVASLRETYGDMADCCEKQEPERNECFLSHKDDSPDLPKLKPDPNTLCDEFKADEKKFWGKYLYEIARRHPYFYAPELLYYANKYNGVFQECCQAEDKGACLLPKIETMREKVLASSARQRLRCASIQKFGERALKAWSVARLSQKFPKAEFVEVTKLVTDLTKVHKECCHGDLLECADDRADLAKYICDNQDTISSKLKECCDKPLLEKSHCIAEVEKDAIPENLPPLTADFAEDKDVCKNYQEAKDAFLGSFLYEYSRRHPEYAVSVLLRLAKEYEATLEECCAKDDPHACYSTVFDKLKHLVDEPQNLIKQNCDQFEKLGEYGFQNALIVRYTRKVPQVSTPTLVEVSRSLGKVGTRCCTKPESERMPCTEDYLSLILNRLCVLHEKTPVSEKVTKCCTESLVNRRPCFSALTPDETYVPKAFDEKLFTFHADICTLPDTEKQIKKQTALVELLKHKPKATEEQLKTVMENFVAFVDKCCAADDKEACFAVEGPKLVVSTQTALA
Procedure: BSAff (1.914 mg) was dissolved in distilled water (3.19 ml) to give concentration of 0.6 mg/ml. Diazepam (0.422 mg) was dissolved by sonication for 30 mins in distilled water (3.297 ml) to give a concentration of 0.128 mg/ml. BSAff solution (1.05 ml) was transferred to 2 cm cell and CD spectra was recorded. Diazepam (22 μl) was added to the BSAff in the 2 cm cell and the mixture was gently mixed by rotating the cell several times. The CD spectrum of the mixture was then recorded. The cell was then washed thoroughly with distilled water and ethanol. Distilled water (1.10 ml) was then placed in the 2 cm cell and CD spectrum recorded. CD parameters are as in example 1.

HSAff = molecular target: T2, HSAff (Homo sapiens, UniProt P02768); assay: Displacement of albumin-bound diazepam from HSAff-diazepam (1:1) monitored by induced CD; type: binding
T2 construct: purchased Sigma-Aldrich Company Ltd catalogue number not given; lot 32H9300
T2 sequence (P02768 25-609): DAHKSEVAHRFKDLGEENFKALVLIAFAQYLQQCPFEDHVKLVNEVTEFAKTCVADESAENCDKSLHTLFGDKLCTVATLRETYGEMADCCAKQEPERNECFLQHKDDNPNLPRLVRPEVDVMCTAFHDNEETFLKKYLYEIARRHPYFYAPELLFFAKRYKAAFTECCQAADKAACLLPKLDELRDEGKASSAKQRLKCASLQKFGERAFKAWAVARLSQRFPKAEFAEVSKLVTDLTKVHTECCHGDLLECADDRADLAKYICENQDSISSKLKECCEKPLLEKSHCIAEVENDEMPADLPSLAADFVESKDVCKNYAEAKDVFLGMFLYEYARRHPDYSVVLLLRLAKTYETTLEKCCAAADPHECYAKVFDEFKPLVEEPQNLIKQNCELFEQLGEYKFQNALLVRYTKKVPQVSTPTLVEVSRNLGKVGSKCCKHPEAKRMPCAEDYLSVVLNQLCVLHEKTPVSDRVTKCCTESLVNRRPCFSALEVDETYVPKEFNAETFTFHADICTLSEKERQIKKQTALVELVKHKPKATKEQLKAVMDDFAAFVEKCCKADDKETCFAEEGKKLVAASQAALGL
Procedure: Diazepam (0.088 mg) was dissolved by sonication for 30 mins in distilled water (0.687 ml). Sodium palmitate (0.872 mg) was dissolved in water pH 8.8 (0.698 ml) by sonicating for 5 mins. […] The CD spectrum of the mixture was then recorded. Sodium palmitate (51 μl) was added to the cell and the mixture was gently mixed by rotating the cell several times. The CD spectrum of the mixture was recorded. This process was repeated twice over, each time the CD spectrum was recorded. The cell was then washed thoroughly with distilled water and ethanol. Distilled water (2.705 ml) was then placed in the 5 cm cell and CD spectrum recorded.
CD spectra were recorded with nitrogen flushed JASCO spectropolarimeter J600 using 4 s time constant, 10 nm/min scan speed and a spectral bandwidth of 2 nm. The induced CD spectra of bound diazepam were obtained by subtracting the spectrum of albumin from that of the HSA-diazepam mixture. The spectra were reported as Δε=εL−εR(M^−1cm^−1).
Diazepam and medium chain fatty acids are known to bind to albumin site II as discussed by T Peters, All about albumin, Academic Press, 1999, p116. The fatty acid molecules are devoid of any CD signal. […] In here, diazepam is used as a marker to show the binding of fatty acids and fatty acid containing molecules to albumin. […] Palmitic acid binds to at least five long chain fatty acid binding sites of which one is closely located to albumin site II as reported by Curry et al. (1998, Nature Structural Biology, 5, 827-835).

Pronase® = type: in vitro ADME
Procedure: HSA fatty acid free (2.359 mg) was dissolved in distilled water (3.93 ml) to give concentration 0.60 mg/ml. Pronase® (0.363 mg) was dissolved in distilled water (0.605 ml) to give a concentration 0.60 mg/ml.
HSA fatty acid free solution (0.2 ml) was placed in a 0.05 cm cell and the circular dichroism spectrum (CD) was recorded. The cell was then thoroughly washed with distilled water and ethanol. HSA fatty acid free solution (2.7 ml) was placed in a glass vial. Pronase® solution (27 μl) was added to HSA fatty acid free solution in the glass vial. The mixture was mixed gently and 200 μl was transferred to 0.05 cm cell. The cell was then incubated at 37° C. and CD spectra recorded at various incubation time intervals.
CD spectra were recorded with nitrogen flushed JASCO spectropolarimeters J600 4s time constant, 10 nm/min scan speed and a spectral bandwidth of 2 nm. […]
HSA fatty acid free solution (275 μl) was placed in a glass vial. […] Mixture (200 μl) was transferred into a 0.05 cm cell and CD spectrum was recorded. […] The cell was then incubated at 37° C. and CD spectra recorded at various incubation time intervals.
HSA with fatty acid solution (275 μl) was placed in a glass vial. […] Mixture (200 μl) was transferred into a 0.05 cm cell and CD spectrum was recorded. […] The cell was then incubated at 37° C. and CD spectra recorded at various incubation time intervals. […]

[3] = Staphylococcus aureus, 0.5 h, Table 2, peptide incubation time in mixture 30 min 25° C.
[4] = Staphylococcus aureus, Table 2, peptide incubation time in mixture 2 h 37° C.

Compound: CC(C)C[C@H](NC(=O)[C@H](C)NC(=O)CNC(=O)[C@H](CCCCN)NC(=O)[C@H](CCCNC(=N)N)NC(=O)[C@H](CCCCN)NC(=O)[C@H](Cc1ccccc1)NC(=O)[C@@H](N)CCCCN)C(=O)N[C@@H](CCCNC(=N)N)C(=O)N[C@@H](CCC(N)=O)C(=O)N[C@@H](CCCCN)C(=O)N[C@@H](CC(N)=O)C(=O)N[C@@H](CCCCN)C(N)=O [RH04]
- Minimum Inhibitory Concentration E. coli [1]: 620 µM
- Minimum Inhibitory Concentration S. aureus ([2]; NCTC Oxford): 145 µM

Compound: BSAff: bovine serum albumin essentially fatty acid free and essentially globulin-free
- induced CD of diazepam bound to BSAff, in words (BSAff): characteristic induced CD

Compound: CCCCCCCCCCCCCC(=O)N[C@@H](Cc1ccccc1)C(=O)N[C@@H](C)C(=O)N[C@@H](CCCNC(=N)N)C(=O)N[C@@H](CCCCN)C(=O)NCC(=O)N[C@@H](C)C(=O)N[C@@H](CC(C)C)C(=O)N[C@@H](CCCNC(=N)N)C(=O)N[C@@H](CCC(N)=O)C(=O)O [RH01] (Myristoyl-FARKGALRQ-OH)
- displacement of diazepam (DZ) from HSAff-DZ (1:1) (HSAff; added at different molar ratios, data not shown): decreased induced CD
- Minimum Inhibitory Concentration E. coli [1]: 48 µM
- potency with HSAff compared to the lipopeptide alone or with HSAfa ([1]; from Table 1): twice as potent
- stability towards Pronase degradation, comparison in words (Pronase®): stabilises fat free DBax HSA like HSAff
- MIC ([2]; NCTC Oxford, 2 h): 24 µM (≈ 30.2 µg/mL)
- MIC ([2]; NCTC Oxford): 12 µM (≈ 15.1 µg/mL)
- potency with HSAff compared to the lipopeptide alone or with HSAfa ([2]; from Table 1): twice as potent

Compound: CCCCCCCCCCCCCCCC(=O)NCCCC[C@H](NC(=O)[C@H](CC(N)=O)NC(=O)[C@H](CCCCN)NC(=O)[C@H](CCC(N)=O)NC(=O)[C@H](CCCNC(=N)N)NC(=O)[C@H](CC(C)C)NC(=O)[C@H](C)NC(=O)CNC(=O)[C@H](CCCCN)NC(=O)[C@H](CCCNC(=N)N)NC(=O)[C@H](C)NC(=O)[C@H](Cc1ccccc1)NC(=O)[C@H](CCCCN)NC(=O)CCCCCCCCCCCCCCC)C(N)=O [RH02] (Palmitoyl-KFARKGALRQKNK(Palmitoyl)-NH2)
- Minimum Inhibitory Concentration E. coli [1]: 62 µM
- Minimum Inhibitory Concentration S. aureus ([2]; NCTC Oxford): 3.7 µM

Compound: CCCCCCCC(=O)O [CA, caprylic acid, reference compound]
- MIC [2, 3]: > 800 µM
- MIC [2, 4]: > 800 µM

Compound: CCCCCCCCCCCCCCCC(=O)O [PA, palmitic acid]
- percentage of diazepam induced CD (HSAff; 1 molar equivalent added to the mixture HSAff-diazepam (1:1)): 88.5%
- percentage of diazepam induced CD (HSAff; 2 molar equivalents added to the mixture HSAff-diazepam (1:1)): 60.0%
- percentage of diazepam induced CD (HSAff; 3 molar equivalents added to the mixture HSAff-diazepam (1:1)): 18.6%
- MIC [2, 3]: > 800 µM
- MIC [2, 4]: > 800 µM

Compound: CCCCCCCCCCCCCCCC(=O)NCCCC[C@H](NC(=O)[C@H](CC(N)=O)NC(=O)[C@H](CCCCN)NC(=O)[C@H](CCCCNC(=O)CCCCCCCCCCCCCCC)NC(=O)[C@H](CCCNC(=N)N)NC(=O)[C@H](CC(C)C)NC(=O)[C@H](C)NC(=O)CNC(=O)[C@H](CCCCN)NC(=O)[C@H](CCCNC(=N)N)NC(=O)[C@H](C)NC(=O)[C@H](Cc1ccccc1)NC(=O)[C@H](CCCCN)NC(=O)CCCCCCCCCCCCCCC)C(N)=O [RH03] (Palmitoyl-KFARKGALRK(Palmitoyl)KNK(Palmitoyl)-NH2)
- Minimum Inhibitory Concentration E. coli [1]: 441 µM
- Minimum Inhibitory Concentration S. aureus ([2]; NCTC Oxford): 55 µM
